# What was measured:
# AChE [1] = molecular target: T1, AChE (Electrophorus electricus, UniProt O42275); experiment: biochemical; details: substrate ATChI, 37 °C; read-out: IC50 against AChE
# T1 construct: AChE (200 U/g from electric eel); purchased Macklin Inc. (Shanghai, China)
# Description: (§1) AChE (200 U/g from electric eel) and 5,5′-dithiobis(2-nitrobenzoic acid) (DNTB) were purchased from Macklin Inc. (Shanghai, China). BuChE (10 U/mg from horse serum), acetylthiocholine iodide (ATChI) and butyrylthiocholine iodide (BTChI) were purchased from Shanghai Yuanye Bio-Technology (Shanghai, China).
# (§2) The lyophilized powder of AChE and BuChE was dissolved in protein stabilizer (0.1 g BSA dissolved in 100 mL PBS) to form the storage concentration of 10 U/mL and then diluted to the required concentrations. […] After 30 min of incubation at 37 °C, 10 μL of substrate ATChI or BTChI (10 mM) were added and incubated at 37 °C for 30 min. […] For the blank control group, the assays were carried out with wells containing all components except AChE and BuChE. […] All experiments were performed in triplicate.
# BuChE [2] = molecular target: T2, BuChE (Equus caballus, UniProt P81908); experiment: biochemical; details: substrate BTChI, 37 °C; read-out: IC50 against BuChE
# T2 construct: BuChE (10 U/mg from horse serum); purchased Shanghai Yuanye Bio-Technology (Shanghai, China); host or cells: horse serum
# Description: as §1, §2
# AChE [3] = molecular target: T1, AChE; experiment: Kinetic study of AChE inhibition (Lineweaver-Burk, secondary plot); type: biochemical
# Description: (§3) To clarify the mechanism of action of aaptamine, reciprocal plots of 1/[velocity] vs. 1/[substrate] (Lineweaver-Burk plots) were constructed at different concentrations of the substrate ATChI or BTChI (0, 1.25, 2.5, 5, 10 and 25 mM) and aaptamine (0, 5, 20 and 40 μM). Meanwhile, the parallel experiment was also carried out without aaptamine. The remaining procedure was the same as that of described in cholinesterases inhibition assay. The data were plotted on a Lineweaver–Burk diagram using Microsoft Excel 2016 to reveal the mechanism of inhibition. The steady-state inhibition constant Ki (intercept on the x-axis) was determined by the secondary plot of slope vs. the concentrations of inhibitor.
# BuChE [4] = molecular target: T2, BuChE; experiment: Kinetic study of BuChE inhibition (Lineweaver-Burk, secondary plot); type: biochemical
# Description: as §3
# AChE [5] = molecular target: T1, AChE; experiment: Surface plasmon resonance (SPR) assay, AChE; type: binding; details: Biacore T100, steady-state affinity fitting; read-out: Kd (equilibrium dissociation constant) for AChE
# Description: (§4) The experiments were carried out using Biacore T100 with the Sensor Chip CM5. The chip surface was activated following standard NHS + EDC with Biacore PBS-EP (0.02 M Phosphate buffer with 2.7 mM KCl, 0.137 M NaCl and 0.05% P20) buffer used as the running buffer. 7000 RU of untagged AChE or 6600 RU of untagged BuChE was immobilized per flow cell and 100 μg/mL AChE or 20 μg/mL BuChE was injected. The cholinesterase protein is coupled to the sensor chip CM5 by amine coupling. 1 M (pH 8.5) ethanolamine-HCl was used to seal off the active group. Aaptamine was injected into the protein channel and blank channel at the following doses: 100, 50, 25, 12.5, 6.25, 3.125 and 0.39 μM at a flow rate of 30 μL/min. The protein binding period was set to 1 min, and the dissociation period was set to 2 min. The affinity was obtained by fitting the binding data using Biacore T100 Evaluation Software version 3.0 (Chicago, USA).
# BuChE [6] = molecular target: T2, BuChE; experiment: Surface plasmon resonance (SPR) assay, BuChE; type: binding; details: Biacore T100, steady-state affinity fitting; read-out: Kd (equilibrium dissociation constant) for BuChE
# Description: as §4
# [7] = test system: AlCl3-induced zebrafish AD model; experiment: AlCl3-induced zebrafish AD model, behaviour assay; type: in vivo; details: + 100 μM AlCl3, 3 d; for speed change after light stimulus: model 1.38 mm/s, control 2.56 mm/s; for movement distance during 60 min: model 4968 mm, control 9219 mm
# Description: Briefly, the 3–6 dpf zebrafish larvae were randomly placed in a 6-well microplate at a density of 30 zebrafish per well and treated with 100 μM AlCl3 to establish the AD model. […] The control group was maintained in the reverse osmosis water with 0.5% DMSO while the model group was treated with 100 μM AlCl3 containing 0.5% DMSO. […] After 3 d, the distance and speed change after light stimulus alteration were analysed and recorded for three rhythmic light within 60 min (10 min darkness and 10 min illumination alternately) using viewpoint behaviour analyser (Zebralab V3, ViewPoint Life Sciences Co., Ltd., Lyons, France). The protocol for this study involving animals and their maintenance was approved by the Animal Care and Use Committee of Shandong Academy of Sciences (No.00612). Efficacy on motility (%)=[Dsample group−Dmodel group]/[Duntreated group−Dmodel group]×100.
# D is the movement distance of zebrafish during 60 min.
# Efficacy on speed change (%) = [Vsample group – Vmodel group]/[Vuntreated group – Vmodel group] × 100. V is the average velocity (mm/s) of different groups which was obtained by recording the movement distance of every min for every zebrafish during 60 min. All data are expressed as mean ± SEM and analysed by GraphPad Prism version 7.0 software (Graphpad Software Inc., La Jolla, CA). Differences between groups were examined for statistical significance using one‐way ANOVA with Tukey’s post hoc test.
# [8] = test system: nicotinic acetylcholine receptors (nAChRs); details: ref Kudryavtsev et al. [2014]; cited from earlier work
# [9] = test system: nicotinic acetylcholine receptors (nAChRs); details: ref Kudryavtsev et al. [2014]; cited from earlier work; remark: listed apart in the source
# AChE [10] = details: ref Moodie et al. [2019]; read-out: IC50 against AChE (literature); cited from earlier work
# BuChE [11] = details: ref Moodie et al. [2019]; read-out: IC50 against BuChE (literature); cited from earlier work
# T2 sequence (P81908 whole entry): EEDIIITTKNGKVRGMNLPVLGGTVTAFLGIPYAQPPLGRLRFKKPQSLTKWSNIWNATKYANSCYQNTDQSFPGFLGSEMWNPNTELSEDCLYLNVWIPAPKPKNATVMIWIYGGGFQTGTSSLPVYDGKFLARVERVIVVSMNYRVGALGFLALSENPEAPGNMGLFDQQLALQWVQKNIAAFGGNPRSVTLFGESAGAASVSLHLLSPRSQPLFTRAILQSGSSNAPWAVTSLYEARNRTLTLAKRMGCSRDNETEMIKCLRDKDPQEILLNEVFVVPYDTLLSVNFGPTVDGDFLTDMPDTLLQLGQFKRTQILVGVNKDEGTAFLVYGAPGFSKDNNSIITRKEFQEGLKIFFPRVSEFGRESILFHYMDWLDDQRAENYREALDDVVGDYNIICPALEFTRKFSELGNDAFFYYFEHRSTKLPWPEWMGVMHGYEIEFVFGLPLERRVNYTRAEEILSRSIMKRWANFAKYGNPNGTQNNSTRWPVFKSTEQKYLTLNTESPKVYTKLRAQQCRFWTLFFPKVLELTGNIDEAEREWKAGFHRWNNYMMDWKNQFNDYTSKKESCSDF
# T1 sequence (O42275 24-633): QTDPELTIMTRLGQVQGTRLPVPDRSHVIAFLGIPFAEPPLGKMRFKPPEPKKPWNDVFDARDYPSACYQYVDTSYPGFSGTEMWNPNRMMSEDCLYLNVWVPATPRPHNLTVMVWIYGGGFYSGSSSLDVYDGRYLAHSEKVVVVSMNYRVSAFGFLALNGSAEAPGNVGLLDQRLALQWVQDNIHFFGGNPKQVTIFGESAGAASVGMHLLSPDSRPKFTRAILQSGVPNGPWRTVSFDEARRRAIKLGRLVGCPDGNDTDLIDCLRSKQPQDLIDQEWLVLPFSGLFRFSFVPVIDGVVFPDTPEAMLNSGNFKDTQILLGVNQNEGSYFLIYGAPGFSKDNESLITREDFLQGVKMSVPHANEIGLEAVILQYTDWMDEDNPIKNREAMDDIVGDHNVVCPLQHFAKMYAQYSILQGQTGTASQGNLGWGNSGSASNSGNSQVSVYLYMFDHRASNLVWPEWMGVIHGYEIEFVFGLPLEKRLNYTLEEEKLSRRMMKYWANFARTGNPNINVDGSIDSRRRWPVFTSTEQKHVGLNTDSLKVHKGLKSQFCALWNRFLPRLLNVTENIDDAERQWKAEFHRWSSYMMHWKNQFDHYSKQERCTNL
smiles,measurement,setting,value
COc1cc2ccnc3c2c(c1OC)NC=C3 [aaptamine],IC50,AChE [1],16 µM
same,IC50,BuChE [2],4.6 µM
same,inhibition type towards AChE,AChE [3]; Lineweaver-Burk plots,mixed-type inhibition
same,Ki,"AChE [3]; secondary plot of slope vs inhibitor concentration, substrate ATChI, read-out: steady-state inhibition constant Ki against AChE",6.96 ± 0.04 µM
same,inhibition type towards BuChE,BuChE [4]; Lineweaver-Burk plots,mixed-type inhibition
same,Ki,"BuChE [4]; secondary plot of slope vs inhibitor concentration, substrate BTChI, read-out: steady-state inhibition constant Ki against BuChE",6.35 ± 0.02 µM
same,Kd,AChE [5],87.6 µM
same,Kd,BuChE [6],10.7 µM
same,dyskinesia recovery rate,[7]; 5 μM,34.8%
same,efficacy on speed change,[7]; 5 μM,34.7%
same,speed change after light stimulus,[7]; 5 μM,1.79 mm/s
same,movement distance during 60 min,[7]; 5 μM,6447 mm
same,dyskinesia recovery rate,[7]; 10 μM,58.8%
same,efficacy on speed change,[7]; 10 μM,58.5%
same,speed change after light stimulus,[7]; 10 μM,2.07 mm/s
same,movement distance during 60 min,[7]; 10 μM,7466 mm
same,dyskinesia recovery rate,[7]; 20 μM,60.0%
same,efficacy on speed change,[7]; 20 μM,60.2%
same,speed change after light stimulus,[7]; 20 μM,2.09 mm/s
same,movement distance during 60 min,[7]; 20 μM,7517 mm
same,inhibitory effect on nAChRs of Torpedo californica,[8],weak inhibitory effect
same,inhibitory effect on nAChRs of humans,[9],weak inhibitory effect
"COc1cc2c(cc1OC)C(=O)C(CC1CCN(Cc3ccccc3)CC1)C2 (centres unmarked) [donepezil, reference compound]",dyskinesia recovery rate,[7]; 8 μM,63.7%
same,efficacy on speed change,[7]; 8.0 μM,63.6%
same,speed change after light stimulus,[7]; 8.0 μM,2.13 mm/s
same,movement distance during 60 min,[7]; 8 μM,7675 mm
